Test: mn = molality of the nth substance listed, in mol/kg
Conditions: 101 kPa, Liquid

O=C(O)/C=C\C(=O)O [cis-1,4-butenedioic acid] + O
mass density [kg/m3]
Conditions	288.15 K	293.15 K	298.15 K	303.15 K	308.15 K	313.15 K	318.15 K	323.15 K	328.15 K	333.15 K
m1 = 0.09831	1003.24	1002.29	1001.04	999.59	997.91	996.07	994.03	991.81	989.41	986.88
m1 = 0.4902	1018.5	1017.26	1015.79	1014.1	1012.25	1010.18	1007.98	1005.58	1003.01	1000.36
m1 = 0.979	1035.99	1034.47	1032.74	1030.81	1028.74	1026.46	1024.06	1021.47	1018.75	1015.92
